Test results from US4877893A, “Process for the preparation of 2-(O-alkyl)-2-thio-1,3,2-oxathiophospholanes” (priority 1987, dated 1989).

Columns and labels:
Experiment in all cases: Fungicidal effect on infected agar nutrient media, colony diameter
Type in all cases: cell-based
Sclerotinia sclerotinia = conditions: 3rd day after treatment, untreated control 41.7
Procedure: (§1) Agar nutrient media (Diameter 70 MM, thickness 10 mm) infected by Sclerotonia sclerotinia suspension are treated with 20 EC formulations prepared according to Example 27 and comprising 1, 10, 100 and 1000 ppm, respectively of the active ingredient of the Formula I. The fungicidal effect of the compositions is evaluated on the 3rd day after treatment by measuring the diameter of the Fungi colonies.

Penicillium cyclopium = conditions: 7th day after treatment, untreated 26.5
Procedure: as §1
The series of measureents described in Example 35 is carried out except that the agar nutrient media are infected by a Penicillium cyclopium Fungi strain and the test is evaluated on the 7th day after treatment.

Alternaria tenuis = conditions: 5th day after treatment, untreated control 36.8
Procedure: as §1
The series of measurements according to Example 35 is carried out except that the agar nutrient media are infected by Alternaria Tenius and evaluation is accomplished on the 5th day after treatment.

SMILES | Diameter of colony (mm) (Sclerotinia sclerotinia; 1 ppm) | Diameter of colony (mm) (Sclerotinia sclerotinia; 10 ppm) | Diameter of colony (mm) (Sclerotinia sclerotinia; 100 ppm) | Diameter of colony (mm) (Sclerotinia sclerotinia; 1000 ppm) | Diameter of colony (mm) (Penicillium cyclopium; 1 ppm) | Diameter of colony (mm) (Penicillium cyclopium; 10 ppm) | Diameter of colony (mm) (Penicillium cyclopium; 100 ppm) | Diameter of colony (mm) (Penicillium cyclopium; 1000 ppm) | Diameter of colony (mm) (Alternaria tenuis; 1 ppm) | Diameter of colony (mm) (Alternaria tenuis; 10 ppm) | Diameter of colony (mm) (Alternaria tenuis; 100 ppm) | Diameter of colony (mm) (Alternaria tenuis; 1000 ppm)
CC(CBr)OP1(=S)OCCS1 (stereo not drawn) [Compound 11] | 34.6 mm | 30.6 mm | 2.8 mm | 0 mm | 24.1 mm | 17.5 mm | 8.3 mm | 0 mm | 35.9 mm | 24.1 mm | 4.6 mm | 0 mm
CCCCC(C)OP1(=S)OC(C)C(C)S1 (stereo not drawn) [Compound 65] | 35.8 mm | 30.1 mm | 3.7 mm | 0 mm | 24.6 mm | 19.1 mm | 7.5 mm | 0 mm | 33.8 mm | 25.3 mm | 6.6 mm | 0 mm
CCCOP1(=S)OCC(C)S1 (stereo not drawn) [Compound 48, 2-(0-n-propyl)-2-thio-4-methyl-1,3,2-oxathiophospholane] | 35.8 mm | 29.1 mm | 2.8 mm | 0 mm | 24.2 mm | 19.2 mm | 8.5 mm | 0 mm | 36.1 mm | 24.6 mm | 6.3 mm | 0 mm
CC1COP(=S)(OC(C)C(C)Br)S1 (stereo not drawn) [Compound 32] | 38.9 mm | 30.0 mm | 3.2 mm | 0 mm | 19.4 mm | 16.7 mm | 7.2 mm | 0 mm | 31.2 mm | 27.4 mm | 7.2 mm | 0 mm
CCCCOP1(=S)OC(C)C(C)S1 (stereo not drawn) [Compound 63, 2-(0-n-butyl)-2-thio-4,5-dimethyl-1,3,2-oxathiophospholane] | 34.2 mm | 29.9 mm | 3.1 mm | 0 mm | 24.8 mm | 18.5 mm | 8.5 mm | 0 mm | 35.0 mm | 24.2 mm | 6.7 mm | 0 mm
CC1CSP(=S)(OC(C)C(C)I)O1 (stereo not drawn) [Compound 39] | 37.2 mm | 30.2 mm | 3.6 mm | 0 mm | 21.1 mm | 15.8 mm | 4.7 mm | 0 mm | 34.6 mm | 23.3 mm | 7.3 mm | 0 mm
CC(C)COP1(=S)OCCS1 (stereo not drawn) [Compound 50, 2-(0-2'-methyl-n-propyl)-2-thio-1,3,2-oxathiophospholane] | 36.5 mm | 29.7 mm | 3.7 mm | 0 mm | 25.1 mm | 19.2 mm | 7.7 mm | 0 mm | 35.2 mm | 23.8 mm | 5.3 mm | 0 mm
